In PubChem BioAssay (NCI):
“And” between values parts separate entries of the source, which are not always exact repeats. Identical values can stand only once.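 Cultured in 96-well plates, cells were exposed to test compound for 48 hours across five concentrations. Abbreviation: GI50, concentration required for 50% inhibition of growth. Definition used: TGI = concentration required for complete inhibition of growth.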

Experiments:
Experiment in all cases: DTP human tumour cell line panel, 48 h
[1] = tested on: 786-0 renal
[2] = tested on: BT-549 breast
[3] = tested on: KM20L2 colon
[4] = tested on: OVCAR-3 ovarian
[5] = tested on: RXF 393 renal
[6] = tested on: SN12C renal
[7] = tested on: TK-10 renal
[8] = tested on: UACC-257 melanoma
[9] = tested on: XF 498 CNS
[10] = tested on: HS 578T breast

With `COc1cc(C2c3cc4c(cc3[C@@H](Nc3ccc([N+](=O)[O-])cc3)C3COC(=O)[C@H]23)OCO4)cc(OC)c1O` (stereo not given in full) the GI50 [1] was 0.377 µM, the TGI [1] was 3.35 µM and the TGI [2] was 6.39 µM. The TGI [3] was 14.8 µM, the TGI [4] was 17.3 µM and the TGI [5] was 6.93 µM. For the same compound, the GI50 [6] was 0.486 µM, the TGI [6] was 7.96 µM and the TGI [7] was 6.97 µM. For the same compound, the TGI [8] was 34.5 µM, the GI50 [9] was 0.613 µM and the TGI [9] was 15 µM.
`CCOC(=O)/C(C#N)=C\Sc1ccccc1` was tested, and the TGI [1] was 29.1 µM, the TGI [3] was 51.9 µM and the TGI [4] was 39.2 µM. It also gave a TGI [5] of 35.1 µM, a TGI [6] of 31.7 µM and a TGI [7] greater than 100 µM. It also gave a TGI [8] greater than 100 µM and a TGI [9] greater than 100 µM.
In the case of `COc1ccc(/C=C\c2cc(OC)c(OC)c(OC)c2)cc1OC(=O)CC(N)C(=O)O` (stereo not given), the GI50 [1] is reported as 0.000174 µM, the GI50 [10] is reported as 0.00262 µM and the TGI [10] is reported as 0.00314 µM. The TGI [3] was 21.2 µM, the GI50 [4] was 0.000506 µM and the TGI [4] was 0.00528 µM and 0.00484 µM and 0.0193 µM. It also gave a GI50 [5] of 0.00122 µM, a GI50 [6] of 0.00412 µM and a TGI [6] greater than 100 µM. It also gave a GI50 [7] of 36.9 µM, a TGI [7] greater than 100 µM and a GI50 [8] of 11.9 µM. The TGI [8] was greater than 100 µM and the TGI [9] was 0.00792 µM.
`O=C1C(Cl)=C(Cl)C(=O)N1c1ccc(F)cc1` gave a TGI [1] of 31 µM, a TGI [2] of 30.1 µM and a TGI [10] of 55.4 µM. The TGI [3] was 52.8 µM, the TGI [4] was 32.4 µM and the TGI [5] was 38.5 µM. It also gave a TGI [6] of 34.9 µM, a TGI [7] of 35.1 µM and a TGI [8] greater than 100 µM. The TGI [9] was 34.9 µM.
Compound `O=C(COC(=O)c1cccc2c(=O)c3ccccc3[nH]c12)Nc1ccc(Cl)cc1` has a TGI [1] greater than 100 µM, a TGI [3] greater than 100 µM and a TGI [4] greater than 100 µM. It also gave a TGI [5] of 66 µM, a TGI [6] greater than 100 µM and a TGI [7] of 46.5 µM. It also gave a TGI [8] greater than 100 µM and a TGI [9] of 97.3 µM.
In the case of `C[C@]12CC(C=O)C(=O)C(O)=C1CC[C@@H]1C2CC[C@@]2(C)C1CC[C@]2(C)O` (stereo not given in full), the TGI [1] is reported as 44.4 µM, the TGI [3] is reported as 52.9 µM and the TGI [4] is reported as 64.7 µM. For the same compound, the TGI [5] was 37.3 µM, the TGI [6] was 42.4 µM and the TGI [7] was 99.5 µM. The TGI [8] was 75.5 µM and the TGI [9] was 33.4 µM.
Compound `CN(C)C(=S)/N=c1\ssc(=S)n1Cc1ccco1` has a TGI [1] greater than 46.4 µM, a TGI [2] of 84.8 µM and a TGI [3] greater than 100 µM. The TGI [4] was 9.58 µM, the TGI [5] was 8.22 µM and the TGI [6] was greater than 100 µM. The TGI [7] was greater than 100 µM, the TGI [8] was greater than 100 µM and the TGI [9] was 60.1 µM.
Compound `Cc1ccc(C)c(NC(=O)C(=O)C2C(=O)N(c3ccccc3)N=C2N)c1` (stereo not given) has a TGI [1] greater than 100 µM, a TGI [3] greater than 100 µM and a TGI [4] greater than 100 µM. It also gave a TGI [5] greater than 100 µM, a TGI [6] greater than 100 µM and a TGI [7] greater than 100 µM. It also gave a TGI [8] greater than 100 µM and a TGI [9] greater than 100 µM.
For `COC(=O)C(=O)C(C(C)=O)C(=O)NCc1ccccc1` (stereo not given), the TGI [1] was greater than 100 µM, the TGI [3] was greater than 100 µM and the TGI [4] was greater than 100 µM. It also gave a TGI [5] greater than 100 µM, a TGI [6] greater than 100 µM and a TGI [7] greater than 100 µM. The TGI [8] was greater than 100 µM and the TGI [9] was greater than 100 µM.
